Results published in patent publication US8981179B2, “Transgenic non-human animal and uses thereof” (Sanofi, priority 2009, dated 2015).

Tests used:
[1] = tested on: cAMP pathway (CreLuc luciferase reporter) in brain slices; assay: Whole brain slice luminescence, cAMP pathway activators; format: cell-based, mouse; conditions: line 187, 1 uM isoproterenol, 2 days
Method: In general, brains from CreLuc mice can be harvested and then either cut into slices on a microtome or various subregions can also be dissected out and then sliced on a microtome. The slices can then be incubated with different compounds such as forskolin and rolipram, or GPCR specific compounds. Luciferase levels can then be measured with an IVIS bioimager or a photomultiplier with a carousel to take quantitative timecourse measurements.
Thus, isoproterenol was used to increase the luciferase signal window which allows for screening GPCR specific compounds such as Gi agonists.
Compound activity can also be quantitated over time in a viable brain slice and luciferase expression can be visualized by a bioimager. […] Forskolin is a general activator of cAMP.

[2] = tested on: β-adrenergic receptor (ADβR); assay: Whole splenocytes CreLuc luciferase assay, ADβR agonist; format: cell-based, mouse; conditions: line 64 whole splenocytes, 10 uM, 4 hours
Method: Whole splenocyte preps isolated from CreLuc mice (line 64) were used to show the effects of general cAMP inducers such as forskolin and rolipram, as well as Gs agonists on luciferase expression (FIG. 16). […] The cell suspension was then passed through a 70 um strainer into a 50 ml conical tube. […] Cells were diluted to 2×10^6/ml, and 100 ul of the cells were plated per well in a 96 well white opaque plate. […] At 24 hours, compounds were added to the plates for an additional 4 hours. The general inducers include rolipram (Sigma R6520), forskolin (Sigma F6886). […] The assay was run in triplicate. After 4 hours, 100 μl of BrightGlo (Promega, Madison, Wis., cat#E2610) and the assay was read on a TopCount luminometer. […] The preparation used in the experiment was a whole splenocyte preparation which is a mixed population of cells.

ADβR [3] = assay: Cardiomyocytes CreLuc luciferase assay, ADβR agonist; format: cell-based, mouse; conditions: cardiomyocytes line 229, 10 μM isoproterenol
Method: The effects of forskolin and rolipram and isoproterenol on luciferase levels in cardiomyocytes was studied (FIG. 35). Cardiomyocytes were isolated from P3 pups from line 229. The cells were cultured in a 96 well plate. Compounds tested include 10 μM forskolin, 5 μM rolipram and 10 μM isoproterenol (ADβR agonist).

ADβR [4] = assay: Isolated CD4+ T cells CreLuc luciferase assay, ADβR agonist; format: cell-based, mouse; conditions: line 64 CD4+ T cells, anti CD3 24 hours, 10 μM, 4 hours
Method: The effects of different Gs agonists on luciferase levels in anti CD3 stimulated CD4+ T cells isolated from CreLuc mice was studied (FIG. 19). Whole splenocyte populations were prepared by mechanical disruption. CD4+ cells were then isolated by MACS Magnetic Separation with Positive Selection (Miltenyi Biotec cat#130-049-201). The cells, 1.5×10^5 per well, were then plated on 96 well white opaque plates and then stimulated with anti CD3 antibodies (BD Pharmingen cat#553058). After 24 hours, compounds were added for an additional 4 hours. Gs agonists for DP (B[…]), EP2 (EX00000173A) and ADβR (isoproterenol) were all used at 10 μM. Forskolin 5 μM, and rolipram 10 μM. BrightGlo (Promega, Madison, Wis., cat#E2610) was added and the assay was read on the TopCount. A 25-fold increase is observed in cells treated with forskolin and rolipram. […] The transgene was responsive to specific Gs agonists as well as general modulators of the cAMP pathway.

CRE Luc reporter = assay: In vivo bioluminescence imaging of CreLuc transgenic mouse after isoproterenol; conditions: bioimaging
Method: Administration of isoproterenol (right panel) increases spinal cord expression of the CRE Luc reporter compared to basal levels (left panel). The bioluminescent detection is represented visually on a white-light image of the animal as a pseudocolor representation in grayscale. […] For in vivo assays, the animals are dosed with luciferin only and then bioimaged on an IVIS bioimager to get baseline signal. The animals are then dosed with compound, and then bioimaged again at a set timepoint to examine the effects of the compound on the luciferase signal. Data can be analyzed as the fold induction of the induced signal versus the baseline signal. For the ex vivo assays, mice are dosed with either compound or vehicle, and then at a set timepoint, tissues are harvested and frozen. The tissues can then be homogenized and a luciferase assay such as Promega Luciferase assay system (Promega cat #E1500) run on the tissue extracts and the assay read on a luminometer such as the Topcount. Data can be analyzed as the relative light units per μg protein, comparing vehicle versus compound groups.

ADβR [5] = assay: Mouse embryonic fibroblasts CreLuc luciferase assay, ADβR agonist; format: cell-based; conditions: six independent CreLuc lines, 10 μM isoproterenol
Method: The effects of forskolin, rolipram and isoproterenol on luciferase expression in mouse embryonic fibroblasts was investigated (FIG. 33). Mouse embryonic fibroblasts were cultured from E12 embryos from six independent CreLuc lines. Cells were plated at 20,000 cells per well. Compounds tested include 10 μM forskolin, 5 μM rolipram and 10 μM isoproterenol (ADβR agonist).

ADRβ = assay: Primary striatal neurons CreLuc luciferase assay, ADβR agonist; format: cell-based, mouse; conditions: striatal neurons line 187, day 4, 10 μM, 3 μM and 1 μM, 5 hours
Text: Any cell culture derived from the CreLuc mice may be used to screen compounds for the ability to modulate GPCRs. Luciferase expression was induced in CreLuc striatal neurons by forskolin and rolipram, and Gs agonists for DRD1 and ADβR (FIG. 16). Striatum neurons were isolated from E14 embryos. The assays were run at day 4 in culture. […]. Thus, the transgene is functional in striatal as well cortical neurons (see FIG. 10).

[6] = tested on: β adrenergic receptors (ADβR); assay: Primary cortical neurons CreLuc luciferase assay, Gs modulation via ADβR; format: cell-based, mouse; conditions: cortical neurons line 187, day 3, 10 μM, 4 hours
Text: A general schematic of the workflow for the isolation and compound treatment of primary neuronal cells from the CreLuc model is depicted in FIG. 9. Cortices or other brain subregions are removed from embryos, usually embryonic (E) day 17 or 18, but also as early as E14. The individual neurons are then isolated and plated onto 96 well assay plates. Assays are run either in triplicate or quadruplicate. The assays are run from day 3 in culture up until day 7 or day 10 in culture depending on the expression levels of the target GPCR. Compounds are added to the plates then at a set timepoint, Bright Glo (Promega, Cat #E2610) is added to the plates and the assay is then run on a TopCount or other luminometer.
Primary cell cultures from the CreLuc mice may be used to screen compounds that are capable of modulating Gs coupled receptors. Neurons were isolated from the cortices of line 187 E18 embryos. […] The assay was run in triplicates on day three in culture. Forskolin was used at 5 μM, rolipram at 10 μM and the Gs agonists, ADβR-isoproterenol; and Dopamine-SKF82958 (MFG, Cat #C130) at 10 μM. At 4 hours, Bright Glo was added and the assays run on a Topcount. Forskolin is a general activator of cAMP. […] Forskoline and rolipram act synergistically to increase luciferase expression. […]

CC(C)NCC(O)c1ccc(O)c(O)c1 (centres unmarked) [isoproterenol]
luciferase expression in hippocampal brain slices [1]: induces luciferase expression levels | luciferase versus DMSO only control (t-test) [2]: Statistically significant increases | increase in luciferase levels (ADβR [3]): 2 fold | increase of luciferase (ADβR [4]): 5 fold | spinal cord expression of the CRE Luc reporter compared to basal levels (CRE Luc reporter): increases | luciferase expression in mouse embryonic fibroblasts (ADβR [5]): Significant increases were also observed in three of the lines | luciferase expression (ADRβ): Significant increases | increased luci levels vs DMSO control [6]: 11 fold
